Assay results from patent US20250073217A1 (priority 2022, published 2025).
Read-outs that look alike come from different tables or passages of the source.

Assays:
[1] = biological target: κ (KOP) (Rattus norvegicus, UniProt P34975); type: binding
[2] = biological target: T1, μ (MOP) (h) (Homo sapiens, UniProt P35372); type: cell-based
[3] = biological target: T2, α2B(h) (Homo sapiens, UniProt P18089); type: binding
T2 sequence (P18089 1-450): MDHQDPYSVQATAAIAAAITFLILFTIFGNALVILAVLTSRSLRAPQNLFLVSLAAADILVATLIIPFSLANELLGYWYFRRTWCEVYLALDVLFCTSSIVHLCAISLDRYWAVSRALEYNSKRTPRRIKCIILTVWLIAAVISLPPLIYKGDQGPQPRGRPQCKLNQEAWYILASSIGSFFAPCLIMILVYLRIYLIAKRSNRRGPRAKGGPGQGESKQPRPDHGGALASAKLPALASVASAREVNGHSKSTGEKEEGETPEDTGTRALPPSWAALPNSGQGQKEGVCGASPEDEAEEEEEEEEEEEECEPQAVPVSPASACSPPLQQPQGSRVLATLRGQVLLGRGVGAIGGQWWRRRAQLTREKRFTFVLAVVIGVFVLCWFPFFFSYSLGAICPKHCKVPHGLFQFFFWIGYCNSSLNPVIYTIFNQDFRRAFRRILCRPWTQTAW

[4] = biological target: T1, μ (MOP) (h); type: binding
[5] = system: MDR1-MDCK cells; assay: MDR1-MDCK Permeability and Identification of P-gp Substrate (Bi-directional); type: in vitro ADME, canine; settings: for efflux ratio: minus inhibitor (absence of cyclosporin A)
Method: MDR1-MDCK Permeability and Identification of P-gp Substrate (Bi-directional): Madin-Darby canine kidney (MDCK) cells are an epithelial cell line of canine kidney origin. These cells can be stably transfected to express active P-glycoprotein (MDR1-MDCK) and are ideal for studying drug efflux. Test compound was added to either the apical or basolateral side of a confluent monolayer of MDR1-MDCK cells and permeability was measured by monitoring the appearance of the test compound on the opposite side of the monolayer using LC-MS/MS. The efflux ratio (ER) was calculated from the ratio of B-A and A-B permeabilities. Experiments were performed in the absence and presence of a P-glycoprotein (P-gp) inhibitor (cyclosporin A (10 μM)) to determine whether the compound was subject to P-gp mediated efflux.
Experimental Procedure: MDR1-MDCK cells obtained from the NIH (Rockville, MD, USA) were used between passage numbers 6-30. Cells were seeded onto Millipore Multiscreen Transwell plates at 3.4×10^5 cells/cm^2. The cells were cultured in DMEM and media was changed on day 3. On day 4 the permeability study was performed. Cell culture and assay incubations were carried out at 37° C. in an atmosphere of 5% CO2 with a relative humidity of 95%. […]
The dosing solutions were prepared by diluting test compound with assay buffer to give a final test compound concentration of 10 μM (final DMSO concentration of 1% v/v). […] Test compound permeability was measured on two occasions, in the absence and in the presence of a P-gp inhibitor on both sides of the monolayer. […]
For assessment of A-B permeability. […] Test compound permeability was assessed in duplicate. […] Test and control compounds were quantified by LC-MS/MS cassette analysis using an 8-point calibration with appropriate dilution of the samples. […] The starting concentration (C0) was determined from the dosing solution and the experimental recovery calculated from C0 and both apical and basolateral compartment concentrations. […]

[6] = biological target: δ2 (DOP) (h) (Homo sapiens, UniProt P41143); type: binding
[7] = Brain Tissue Binding, equilibrium dialysis, rat; settings: brain homogenate
[8] = system: L-DOPA induced dyskinesias; assay: L-DOPA induced dyskinesias, Rodent in vivo model
[9] = biological target: CYP2B6 (Homo sapiens, UniProt P20813); settings: 0.1 μM-25 μM, human liver microsomes
[10] = system: plasma proteins; assay: Binding to plasma proteins; type: in vitro ADME
[11] = biological target: T3, CYP3A4 (Homo sapiens, UniProt P08684); settings: 0.1 μM-25 μM, human liver microsomes, substrate testosterone
[12] = biological target: hERG potassium channel (Homo sapiens, UniProt Q12809); assay: hERG Channel Inhibition (IC50 Determination), IonWorks automated patch clamp, CHO cells
[13] = system: CYP3A4; settings: human hepatocytes, 72 hr, 0.4-100 μM, any concentration tested
[14] = system: Caco-2 cells; assay: Caco-2 Permeability (A-B or Bi-directional)
[15] = Bioavailability and Stability; type: in vitro ADME
Text: Bioavailability and Stability: Compounds of the invention were studied in detail, using several parameters to evaluate bioavailability and stability.

[16] = system: CYP1A2; settings: human hepatocytes, 72 hr, 0.4-100 μM, any concentration tested
[17] = biological target: T4, CYP2D6 (Homo sapiens, UniProt P10635); assay: Time Dependent Inhibition of CYP2D6 (Dextromethorphan; IC50 Shift); type: in vitro ADME; settings: for CYP2D6 inhibition: at 25 μM
T4 construct: from tissue
Method: The probe substrate dextromethorphan (5 μM) and NADPH (1 mM) were then added (final DMSO concentration 0.3%) and the samples incubated for 5 min at 37° C. The selective time dependent CYP2D6 inhibitor, paroxetine, was screened alongside the test compounds as a positive control. The reactions were terminated by the addition of an aliquot of the incubation into methanol. The samples were centrifuged at 2500 rpm for 30 min at 4° C., and aliquots of the supernatant are diluted with formic acid in deionised water (final concentration 0.1%) containing internal standard prior to analysis of dextrorphan by LC-MS/MS.

[18] = Brain Tissue Binding, equilibrium dialysis, mouse; settings: fraction unbound could not be determined
[19] = system: CD-1 mice; assay: Mice conditioned place preference (CPP) chamber test; type: in vivo; settings: Compound 1 10 mg/kg IP, 10 minutes later Morphine 10 mg/kg SC, versus Morphine alone; FIG. 1
[20] = system: animal models; assay: Toxicity in animal models; type: in vivo; settings: many animal models, even at high concentrations
Text: Toxicity: The Compound 1 was studied for its toxicity in many animal models.

[21] = biological target: T3, CYP3A4; settings: 0.1 μM-25 μM, human liver microsomes, substrate midazolam
[22] = biological target: CYP2C9 (Homo sapiens, UniProt P11712); assay: CYP2C9 Inhibition, human liver microsomes, tolbutamide; settings: 0.1 μM-25 μM
[23] = biological target: CYP2C8 (Homo sapiens, UniProt P10632); assay: CYP2C8 Inhibition, human liver microsomes, paclitaxel; settings: 0.1 μM-25 μM
[24] = system: L-DOPA induced dyskinesias; assay: L-DOPA induced dyskinesias, Primate in vivo model
[25] = system: CYP2B6; settings: human hepatocytes, 72 hr, at 100 μM
[26] = biological target: CYP1A2 (Homo sapiens, UniProt P05177); settings: 0.1 μM-25 μM, human liver microsomes
[27] = system: CD-1 mice; assay: Mouse Tail Flick Test; type: in vivo; settings: compound 1 10 mg/kg IP, 10 minutes later Morphine 10 mg/kg SC, versus Morphine alone; FIGS. 2A-2C

Chain of κ (KOP) (P34975 whole entry): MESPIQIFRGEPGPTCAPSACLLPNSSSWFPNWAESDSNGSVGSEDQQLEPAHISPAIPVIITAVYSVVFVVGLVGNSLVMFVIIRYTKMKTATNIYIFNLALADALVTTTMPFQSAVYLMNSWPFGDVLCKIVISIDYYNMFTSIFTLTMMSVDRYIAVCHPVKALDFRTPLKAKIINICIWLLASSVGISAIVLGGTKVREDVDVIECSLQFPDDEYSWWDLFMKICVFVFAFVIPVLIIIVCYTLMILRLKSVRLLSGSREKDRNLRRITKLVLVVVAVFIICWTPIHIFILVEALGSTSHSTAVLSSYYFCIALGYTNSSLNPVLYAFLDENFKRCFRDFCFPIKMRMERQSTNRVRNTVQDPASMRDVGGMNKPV
Chain of δ2 (DOP) (h) (P41143 whole entry): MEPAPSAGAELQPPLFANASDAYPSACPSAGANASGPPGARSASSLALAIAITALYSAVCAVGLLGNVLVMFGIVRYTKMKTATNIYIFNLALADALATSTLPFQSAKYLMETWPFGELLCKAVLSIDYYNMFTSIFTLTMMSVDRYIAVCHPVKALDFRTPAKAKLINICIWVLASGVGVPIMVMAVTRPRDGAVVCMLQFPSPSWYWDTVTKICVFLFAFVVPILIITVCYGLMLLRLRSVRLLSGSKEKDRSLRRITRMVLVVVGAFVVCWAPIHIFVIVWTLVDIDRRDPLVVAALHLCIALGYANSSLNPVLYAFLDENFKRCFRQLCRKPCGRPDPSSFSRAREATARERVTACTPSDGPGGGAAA
T1 sequence (P35372 whole entry): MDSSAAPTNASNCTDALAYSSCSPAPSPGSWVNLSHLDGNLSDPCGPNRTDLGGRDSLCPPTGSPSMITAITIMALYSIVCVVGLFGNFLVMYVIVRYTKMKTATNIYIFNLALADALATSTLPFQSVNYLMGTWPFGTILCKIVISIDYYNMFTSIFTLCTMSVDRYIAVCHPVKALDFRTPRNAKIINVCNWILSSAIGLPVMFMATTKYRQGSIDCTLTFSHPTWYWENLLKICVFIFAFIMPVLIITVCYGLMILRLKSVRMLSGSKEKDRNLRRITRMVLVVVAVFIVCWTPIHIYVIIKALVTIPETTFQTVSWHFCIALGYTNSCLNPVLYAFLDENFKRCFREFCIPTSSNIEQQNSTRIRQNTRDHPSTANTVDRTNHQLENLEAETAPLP
T4 sequence (P10635 whole entry): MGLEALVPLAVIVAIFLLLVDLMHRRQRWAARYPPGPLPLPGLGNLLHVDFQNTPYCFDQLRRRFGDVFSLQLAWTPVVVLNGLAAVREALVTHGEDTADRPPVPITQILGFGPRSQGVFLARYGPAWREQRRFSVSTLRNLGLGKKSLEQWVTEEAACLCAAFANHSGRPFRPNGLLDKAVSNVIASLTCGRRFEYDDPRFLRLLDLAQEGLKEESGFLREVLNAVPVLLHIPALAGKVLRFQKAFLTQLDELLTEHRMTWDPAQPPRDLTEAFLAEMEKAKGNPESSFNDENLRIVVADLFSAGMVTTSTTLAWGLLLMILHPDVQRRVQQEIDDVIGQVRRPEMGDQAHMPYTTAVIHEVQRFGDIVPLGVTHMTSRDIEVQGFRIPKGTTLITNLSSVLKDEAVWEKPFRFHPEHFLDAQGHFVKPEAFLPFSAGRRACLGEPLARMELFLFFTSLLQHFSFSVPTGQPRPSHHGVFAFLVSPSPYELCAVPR
T3 sequence (P08684 whole entry): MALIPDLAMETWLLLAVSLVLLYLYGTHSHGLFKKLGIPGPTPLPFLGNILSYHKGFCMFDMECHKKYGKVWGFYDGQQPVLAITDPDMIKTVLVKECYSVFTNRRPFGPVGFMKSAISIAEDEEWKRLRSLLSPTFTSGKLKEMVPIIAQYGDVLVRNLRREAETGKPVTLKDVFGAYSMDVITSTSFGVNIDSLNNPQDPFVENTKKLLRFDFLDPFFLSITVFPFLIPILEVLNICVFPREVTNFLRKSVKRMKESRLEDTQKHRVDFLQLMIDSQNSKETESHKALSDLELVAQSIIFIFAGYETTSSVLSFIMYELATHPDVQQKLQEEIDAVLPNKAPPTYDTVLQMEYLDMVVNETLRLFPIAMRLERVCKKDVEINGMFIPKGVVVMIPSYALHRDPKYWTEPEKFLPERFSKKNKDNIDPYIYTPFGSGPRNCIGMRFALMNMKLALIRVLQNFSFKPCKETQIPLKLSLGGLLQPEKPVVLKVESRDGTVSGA
Chain of CYP2C8 (P10632 whole entry): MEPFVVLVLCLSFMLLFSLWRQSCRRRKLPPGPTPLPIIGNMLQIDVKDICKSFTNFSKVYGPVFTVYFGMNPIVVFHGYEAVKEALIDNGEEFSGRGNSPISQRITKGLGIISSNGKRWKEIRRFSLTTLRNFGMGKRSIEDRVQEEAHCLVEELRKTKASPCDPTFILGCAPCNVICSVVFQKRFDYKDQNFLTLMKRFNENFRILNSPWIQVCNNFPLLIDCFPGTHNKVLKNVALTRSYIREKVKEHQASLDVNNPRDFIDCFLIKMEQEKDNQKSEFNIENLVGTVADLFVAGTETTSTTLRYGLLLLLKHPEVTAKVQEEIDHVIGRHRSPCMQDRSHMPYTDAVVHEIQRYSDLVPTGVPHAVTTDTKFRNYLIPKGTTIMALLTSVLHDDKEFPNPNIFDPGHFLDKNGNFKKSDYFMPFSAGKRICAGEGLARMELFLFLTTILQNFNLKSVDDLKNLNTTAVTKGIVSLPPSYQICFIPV
Chain of CYP2B6 (Homo sapiens, UniProt P20813) (P20813 whole entry): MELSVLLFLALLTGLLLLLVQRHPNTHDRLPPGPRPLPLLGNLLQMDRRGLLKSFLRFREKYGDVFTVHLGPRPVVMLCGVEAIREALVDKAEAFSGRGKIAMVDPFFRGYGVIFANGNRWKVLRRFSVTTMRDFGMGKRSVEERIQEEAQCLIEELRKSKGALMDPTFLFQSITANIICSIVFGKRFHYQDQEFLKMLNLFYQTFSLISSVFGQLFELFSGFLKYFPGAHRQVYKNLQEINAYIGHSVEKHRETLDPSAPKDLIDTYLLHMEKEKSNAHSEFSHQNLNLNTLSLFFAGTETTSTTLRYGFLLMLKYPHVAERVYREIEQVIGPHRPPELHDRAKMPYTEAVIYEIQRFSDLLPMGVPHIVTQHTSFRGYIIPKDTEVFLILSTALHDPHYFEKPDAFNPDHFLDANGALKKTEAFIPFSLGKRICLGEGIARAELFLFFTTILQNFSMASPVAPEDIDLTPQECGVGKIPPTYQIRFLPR
Chain of hERG potassium channel (Q12809 whole entry): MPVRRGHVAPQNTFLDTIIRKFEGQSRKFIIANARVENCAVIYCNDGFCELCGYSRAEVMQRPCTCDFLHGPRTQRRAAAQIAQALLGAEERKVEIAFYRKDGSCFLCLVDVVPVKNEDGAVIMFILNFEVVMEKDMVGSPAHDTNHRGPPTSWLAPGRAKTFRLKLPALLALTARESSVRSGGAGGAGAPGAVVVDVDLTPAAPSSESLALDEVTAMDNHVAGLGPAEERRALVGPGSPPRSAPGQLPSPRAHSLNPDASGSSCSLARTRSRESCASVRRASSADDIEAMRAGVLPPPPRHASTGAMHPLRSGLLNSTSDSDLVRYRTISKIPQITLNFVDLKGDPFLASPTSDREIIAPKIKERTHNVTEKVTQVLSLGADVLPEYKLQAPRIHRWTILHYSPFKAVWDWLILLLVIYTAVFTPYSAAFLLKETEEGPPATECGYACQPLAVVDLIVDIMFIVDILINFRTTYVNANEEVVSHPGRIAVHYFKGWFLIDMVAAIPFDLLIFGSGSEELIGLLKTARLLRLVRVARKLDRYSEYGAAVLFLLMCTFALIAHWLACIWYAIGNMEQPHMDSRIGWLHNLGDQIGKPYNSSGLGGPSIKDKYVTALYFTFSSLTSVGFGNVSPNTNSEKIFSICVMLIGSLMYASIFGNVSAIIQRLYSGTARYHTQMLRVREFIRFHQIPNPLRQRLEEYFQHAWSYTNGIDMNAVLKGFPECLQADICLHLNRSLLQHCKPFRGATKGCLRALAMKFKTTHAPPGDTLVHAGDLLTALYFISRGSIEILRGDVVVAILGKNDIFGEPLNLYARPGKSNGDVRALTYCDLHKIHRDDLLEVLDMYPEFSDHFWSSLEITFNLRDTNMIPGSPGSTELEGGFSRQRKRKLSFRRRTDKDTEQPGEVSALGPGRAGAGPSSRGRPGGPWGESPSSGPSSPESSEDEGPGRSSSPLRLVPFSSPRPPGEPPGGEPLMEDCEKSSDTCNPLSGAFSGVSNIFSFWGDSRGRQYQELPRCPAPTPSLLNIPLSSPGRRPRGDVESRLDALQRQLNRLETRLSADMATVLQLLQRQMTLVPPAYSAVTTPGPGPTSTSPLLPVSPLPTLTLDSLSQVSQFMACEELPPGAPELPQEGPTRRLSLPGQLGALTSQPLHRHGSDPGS
Chain of CYP1A2 (Homo sapiens, UniProt P05177) (P05177 whole entry): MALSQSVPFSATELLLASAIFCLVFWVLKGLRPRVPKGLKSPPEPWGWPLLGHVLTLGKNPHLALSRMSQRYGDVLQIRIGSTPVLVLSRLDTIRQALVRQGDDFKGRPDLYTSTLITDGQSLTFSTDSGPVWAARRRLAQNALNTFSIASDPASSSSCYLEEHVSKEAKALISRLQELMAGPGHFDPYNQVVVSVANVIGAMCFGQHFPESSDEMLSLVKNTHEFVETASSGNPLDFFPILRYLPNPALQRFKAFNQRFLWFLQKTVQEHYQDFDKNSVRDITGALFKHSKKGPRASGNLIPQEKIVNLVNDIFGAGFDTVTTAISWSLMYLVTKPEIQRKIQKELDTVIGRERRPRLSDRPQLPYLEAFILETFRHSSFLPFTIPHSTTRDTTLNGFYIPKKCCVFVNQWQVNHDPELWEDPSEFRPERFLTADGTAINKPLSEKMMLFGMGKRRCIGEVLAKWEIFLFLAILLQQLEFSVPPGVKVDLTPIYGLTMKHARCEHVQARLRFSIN

Molecule `O=C(CCCCCCCBr)NC1CCN(CCc2ccccc2)CC1` [8-bromo-N-(1-phenethylpiperidin-4-yl)octanamide] has a nH [1] of 0.5, a nH [2] of 0.4 and a nH [3] of 0.8.

Work on `CCC(=O)NC1CCN(CCC(=O)OC)CC1` [Methyl 3-(4-propionamidopiperidin-1-yl) propanoate] yielded a nH [1] of 0.8, a nH [4] of 0.5 and a nH [3] of 1.

With `COc1cc2nc(N3CCN(C(=O)c4ccco4)CC3)nc(N)c2cc1OC` [prazosin, reference compound] the efflux ratio [5] was “showing efflux”.

`O=C(NC1CCN(CCc2ccccc2)CC1)c1ccccc1` [N-(1-phenethylpiperidin-4-yl)benzamide] showed a nH [1] of 0.6, a nH [4] of 0.9 and a nH [6] of 0.7. It also gave a nH [3] of 1.3.

`O=C(NC1CCN(CCc2ccccc2)CC1)c1ccco1` [N-(1-phenethylpiperidin-4-yl)furan-2-carboxamide] gave a nH [1] of 1.1, a nH [4] of 0.8 and a nH [6] of 1. The nH [3] was 0.7.

For `CCC(=O)NC1CCN(CCc2cccs2)CC1` [N-(1-(2-(thiophen-2-yl)ethyl)piperidin-4-yl)propionamide], the nH [1] was 0.6, the nH [2] was 0.6 and the nH [6] was 0.9. For the same molecule, the nH [3] was 1.2.

Molecule `O=C(NC1CCN(CCc2ccccc2)CC1)c1ccoc1` [N-(1-phenethylpiperidin-4-yl)furan-3-carboxamide] has a nH [1] of 1.1, a nH [4] of 0.8 and a nH [6] of 1. It also gave a nH [3] of 0.7.

In the case of `CCC(=O)NC1CCN(CCc2ccccc2)CC1` [Compound 1, N-(1-phenethylpiperidin-4-yl)propionamide], the fraction unbound at 2 hr, 5 μM [7] is reported as 0.249, the “inhibition of L-DOPA induced dyskinesias” value ([8]; Rodent in vivo model) is reported as “significant inhibition” and the “effectiveness versus amantadine against L-dopa-induced dyskinesia” value ([8]; comparison with amantadine, model not specified (Rodent and Primate models named)) is reported as “significantly more effective than amantadine”. The CYP2B6 inhibition [9] was “No significant inhibition”, the “binding to plasma proteins” value [10] was “weak, or no noticeable binding” and the “CYP3A4 inhibition (testosterone)” value [11] was “No significant inhibition”. For the same molecule, the IC50 [12] was > 25 µM, the “CYP3A4 mRNA expression” value [13] was “didn't cause a statistically significant change” and the “permeability in the Caco-2 assay” value ([14]; 10 μM, pH gradient 6.8/7.4, 120 min) was “highly permeable in both directions”. For the same molecule, the efflux ratio ([14]; pH gradient (pH 6.8/7.4)) was 2.70, the “permeability in the MDCK assay” value ([5]; 10 μM, pH 7.4, 60 min) was “highly permeable” and the efflux ratio [5] was 1.48. For the same molecule, the bioavailability [15] was “highly bioavailable”, the “CYP1A2 mRNA expression” value [16] was “didn't cause a statistically significant change” and the IC50 ([17]; 0 minute incubation) was > 25 µM. For the same molecule, the “time-dependent CYP2D6 inhibition” value ([17]; IC50 shift, 30 min pre-incubation ± NADPH) was “no evidence of time-dependent CYP2D6 inhibition”, the CYP2D6 inhibition ([17]; 0 minute incubation) was “approximately 40%” and the CYP2D6 inhibition ([17]; 30 minute plus NADPH incubation) was “approximately 40%”. For the same molecule, the binding in mouse [18] was “no binding at all could be detected”, the “time in chamber associated with morphine administration (CPP)” value [19] was “significantly less time” and the toxicity [20] was “virtually no toxicity”. The “CYP3A4 inhibition (midazolam)” value [21] was “No significant inhibition”, the CYP2C9 inhibition [22] was “No significant inhibition” and the CYP2C8 inhibition [23] was “No significant inhibition”. The “inhibition of L-DOPA induced dyskinesias” value [24] was “significant inhibition”, the “CYP2B6 mRNA expression” value [25] was “slight, yet statistically significant decrease” and the CYP1A2 inhibition [26] was “No significant inhibition”. The “analgesic property (tail flick, 52° C. water)” value [27] was “almost identical analgesic property compared to morphine alone”.
